From patent US20060234997A1, “Tetrahydro-pyridoazepin-8-ones and related compounds for the treatment of schizophrenia” (WARNER-LAMBERT COMPANY LLC, priority 2005, published 2006) come the findings set out here.

Broadly, the melting point is the temperature of the solid-liquid transition. The Ki is the equilibrium dissociation constant of an inhibitor or competing ligand from its target.

Where a name gives a salt, the structure may show the parent alone. Marks after values point to notes of the source that are not given here.

Series [1] concerns the target T1, Dopamine D2 receptor (hD2L) (Homo sapiens, UniProt P14416).
T1 construct: expressed in transfected cells; host or cells: CHO cells (CHO-hD2L)
Put plainly: Dopamine D2 Receptor Binding Assay ([3H]spiperone, CHO-hD2L membranes). The note with it: [3H]spiperone 0.4 nM, membrane preparation from CHO-hD2L cells. From the text:
The ability of the novel compounds of this invention to bind to the dopamine D2 receptor can be determined using conventional radioligand receptor binding assays. All receptors can be heterologously expressed in cell lines and binding assays can be conducted in membrane preparations from the cell lines using procedures outlined below. IC50 concentrations can be determined by nonlinear regression of concentration-dependent reduction in specific binding. The Cheng-Prussoff equation can be used to convert the IC50 to Ki concentrations.
[^3H]Spiperone binding to a membrane preparation from CHO-hD2L cells was carried out in 250 μl of 50 mM Tris-HCl buffer containing 100 mM NaCl, 1 mM MgCl2 and 1% DMSO at pH 7.4. Duplicate samples containing (in order of addition) the test compounds, 0.4 nM [^3H]spiperone and approximately 12 μg protein were incubated for 120 minutes at room temperature. Bound radioligand was separated by rapid filtration under reduced pressure through Whatman GF/B glass fiber filters previously treated with 0.3% polyethyleneimine. Radioactivity retained on the filter is determined by liquid scintillation spectrophotometry.

The test system of series [2] is spontaneous locomotor activity in rats. Put plainly: Spontaneous Locomotor Activity Inhibition Test. The class given is in vivo, rat. The note with it: 60 min after dosing, recorded 1 hour, mean ± SEM. The text has this: Potential therapeutic effects of 2-{4-[4-(7-Fluoro-naphthalen-1-yl)-piperazin-1-yl]-butoxy}-5,6,7,9-tetrahydro-1,7,9-triaza-benzocyclohepten-8-one (hereinafter the “test compound”) were investigated in a spontaneous locomotor activity inhibition test in rats, a behavioral test predictive of antipsychotic activity. (A. E. Corbin, et. al.: PD 158771, a potential antipsychotic agent with D2/D3 partial agonist and 5-HT1A agonist actions. II. Prelinical behavioral effects. Neuropharmacology 39: 1211-1221 (2000)) The testing was performed using 16-Beam Digiscan Animal Activity Monitors (Accuscan Electronics, Columbus, Ohio). Each test chamber consisted of a PLEXIGLAS® box measuring 16×16 inches. These boxes were housed inside stainless steel, ventilated sound-attenuating chambers (SACs). Lights inside the SACs were off. Male Sprague-Dawley rats (Harlan), weighing 180 to 200 g at the time of testing, were used. Rats were provided with food and water ad libitum, but were food deprived for 24 hours before testing. Rats were randomly assigned to vehicle or drug treatment groups, and were tested one per chamber. On the test day, rats were removed from the housing room and brought to the test room, where they were placed into PLEXIGLAS® isolator cages on corncob bedding, 4 rats per cage. Rats were dosed orally (PO) with the test compound or vehicle, and then returned to the isolators. After a 60-minute absorption period, each rat was placed into the test chamber, the chamber door closed, and recording of locomotor activity begun. Locomotor activity was recorded for 1 hour, in 5-minute blocks. The test compound was suspended in 1% cremophor EL, 1% HCl 1N, and 0.5% methocel in water. The test compound or the vehicle was administered in a volume of 5 mL/kg. Doses are expressed as the active moiety (ie, base). Locomotor activity was measured as centimeters traveled and expressed as percent inhibition from vehicle control. Statistical analysis was performed using a one-way ANOVA followed by a post hoc Dunnett's test. Data from the vehicle-treated control groups from each experiment were compared using a one-way ANOVA.

T1 sequence (P14416 whole entry): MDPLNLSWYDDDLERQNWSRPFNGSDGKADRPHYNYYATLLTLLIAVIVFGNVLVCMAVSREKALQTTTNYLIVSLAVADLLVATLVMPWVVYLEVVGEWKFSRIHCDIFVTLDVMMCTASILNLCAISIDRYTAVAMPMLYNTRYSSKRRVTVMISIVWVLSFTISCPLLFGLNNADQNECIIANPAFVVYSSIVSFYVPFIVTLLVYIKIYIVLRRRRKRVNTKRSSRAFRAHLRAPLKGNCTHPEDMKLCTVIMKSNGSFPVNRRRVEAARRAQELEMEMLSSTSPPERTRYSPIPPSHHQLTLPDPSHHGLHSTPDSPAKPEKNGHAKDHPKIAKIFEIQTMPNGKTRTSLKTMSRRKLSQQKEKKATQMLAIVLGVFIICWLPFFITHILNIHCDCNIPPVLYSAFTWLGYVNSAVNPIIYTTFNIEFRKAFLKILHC

`CC1(C)CNC(=O)Nc2cc(CCCCCN3CCN(c4cccc(Cl)c4Cl)CC3)ccc21` [Example 67, 8-{5-[4-(2,3-Dichlorophenyl)piperazin-1-yl]pentyl}-5,5-dimethyl-1,3,4,5-tetrahydro-benzo[d][1,3]diazepin-2-one Methanesulfonic Acid]: the melting point fell in the range of 215 to 218 °C. The affinity in series [1] corresponds to a Ki of 25 nM. In turn, `CC1(C)CCC(=O)Nc2cc(CCCCCN3CCN(c4cccc(Cl)c4Cl)CC3)ccc21` [Example 70, 8-{5-[4-(2,3-Dichlorophenyl)piperazin-1-yl]pentyl}-5,5-dimethyl-1,3,4,5-tetrahydrobenzo[b]azepin-2-one Methanesulfonic Acid] yielded a melting point of 168 to 170 °C. The molecule also displayed a Ki in series [1] of 56.5 nM. With `O=C1NCCc2ccc(OCCCCN3CCN(c4cccc5ccc(F)cc45)CC3)nc2N1` [Example 18, 2-{4-[4-(7-Fluoro-naphthalen-1-yl)-piperazin-1-yl]-butoxy}-5,6,7,9-tetrahydro-1,7,9-triaza-benzocyclohepten-8-one], the “Percent Decrease from Control (locomotor activity)” value is on record as 9.0 ± 37.9^c in series [2] (0.1 mg/kg PO), 38.3 ± 47.2^bd in series [2] (0.3 mg/kg PO), 53.7 ± 4.8^bd in series [2] (1 mg/kg PO) and 75.4 ± 3.5^cd in series [2] (3 mg/kg PO). In addition, the Ki in series [1] came to 1.79 nM. The molecule `O=C1NCCc2ccc(OCCCCN3CCN(c4cccc5ccccc45)CC3)nc2N1` (as salt: HCl) [Example 15, 2-[4-(4-Naphthalen-1-yl-piperazin-1-yl)-butoxy]-5,6,7,9-tetrahydro-1,7,9-triaza-benzocyclohepten-8-one] came in with a melting point of 188 to 190 °C.

Turning to `O=C1NCCc2ccc(OCCCCN3CCN(c4cccc5c4OCC5)CC3)nc2N1` [Example 19, 2-{4-[4-(2,3-Dihydro-benzofuran-7-yl)-piperazin-1-yl]-butoxy}-5,6,7,9-tetrahydro-1,7,9-triaza-benzocyclohepten-8-one], the melting point lay in the range of 72 to 73 °C. The molecule also gave an inhibition constant (Ki) in series [1] of 0.4 nM. `O=C1NCCc2ccc(OCCCCN3CCN(c4cccc5c4OCCCO5)CC3)nc2N1` [Example 20, 2-{4-[4-(3,4-Dihydro-2H-benzo[b][1,4]dioxepin-6-yl)-piperazin-1-yl]-butoxy}-5,6,7,9-tetrahydro-1,7,9-triaza-benzocyclohepten-8-one] gave a melting point of 78 to 79 °C. The molecule further came in with a Ki in series [1] of 1 nM.

In turn, `O=C1NCCc2ccc(OCCCN3CCN(c4cccc(Cl)c4Cl)CC3)cc2N1` [Example 28, 8-{3-[4-(2,3-Dichlorophenyl)piperazin-1-yl]propoxy}-1,3,4,5-tetrahydrobenzo[d][1,3]diazepin-2-one] yielded a melting point of 183 to 184 °C. On the same count and under the same terms, under `CN1CCc2ccc(OCCCCN3CCN(c4cccc(Cl)c4Cl)CC3)cc2NC1=O` [Example 25, 8-{4-[4-(2,3-Dichlorophenyl)piperazin-1-yl]butoxy}-3-methyl-1,3,4,5-tetrahydro-benzo[d][1,3]diazepin-2-one] stands 139 to 140 °C; under `CC1(C)CCC(=O)Nc2cc(OCCCCN3CCN(c4cccc(Cl)c4Cl)CC3)ccc21` [Example 54, 8-{4-[4-(2,3-Dichlorophenyl)piperazin-1-yl]-butoxy}-5,5-dimethyl-1,3,4,5-tetrahydrobenzo[b]azepin-2-one], 106 to 108 °C; under `CC1(C)CCC(=O)Nc2cc(OCCCN3CCN(c4cccc(Cl)c4Cl)CC3)ccc21` [Example 53, 8-{3-[4-(2,3-Dichlorophenyl)piperazin-1-yl]-propoxy}-5,5-dimethyl-1,3,4,5-tetrahydrobenzo[b]azepin-2-one], 162 to 164 °C. The same measure, in the same setting: in the case of `O=C1NCCc2ccc(OCCCCN3CCN(c4cccc5c4CCCC5)CC3)nc2N1` (as salt: HCl) [Example 16, 2-{4-[4-(5,6,7,8-Tetrahydro-naphthalen-1-yl)-piperazin-1-yl]-butoxy}-5,6,7,9-tetrahydro-1,7,9-triaza-benzocyclohepten-8-one] it was 185 to 186 °C. In turn, `CC1(C)CCC(=O)Nc2cc(/C=C/CCCN3CCN(c4cccc(Cl)c4Cl)CC3)ccc21` [Example 69] registered a melting point of 108 to 109 °C. In addition, the Ki in series [1] worked out at 70.9 nM. On to `O=C1NCCc2ccc(OCCCCN3CCN(c4cccc(C5CC5)n4)CC3)cc2N1` [Example 37], for which the melting point was in the range of 155 to 156 °C. In series [1], this molecule yielded a Ki of 1.81 nM. Regarding `O=C1NCCc2ccc(OCCCCN3CCN(c4cccc5ccc(F)cc45)CC3)nc2N1` (as salt: HCl) [Example 18, 2-{4-[4-(7-Fluoro-naphthalen-1-yl)-piperazin-1-yl]-butoxy}-5,6,7,9-tetrahydro-1,7,9-triaza-benzocyclohepten-8-one], the melting point came out at 234 °C. For `O=C1NCCc2ccc(OCCCCN3CCN(c4cccc(Cl)c4Cl)CC3)cc2N1` [Example 29, 8-{4-[4-(2,3-Dichlorophenyl)piperazin-1-yl]butoxy}-1,3,4,5-tetrahydrobenzo[d][1,3]diazepin-2-one], the melting point lay within 185 to 186 °C. Turning to `O=C1NCCc2ccc(/C=C/CCCN3CCN(c4cccc(Cl)c4Cl)CC3)cc2N1` [Example 64], the melting point lay in the range of 219 to 220 °C. The Ki in series [1] was 9.49 nM. `O=C1NCCc2ccc(OCCCCN3CCN(c4cccc5c4CCC5)CC3)nc2N1` [Example 13, 2-[4-(4-Indan-4-yl-piperazin-1-yl)-butoxy]-5,6,7,9-tetrahydro-1,7,9-triaza-benzocyclohepten-8-one] gave a melting point of 70 to 72 °C. In addition, the inhibition constant (Ki) in series [1] was determined as 0.59 nM.

In turn, `O=C1NCCc2ccc(OCCCCN3CCN(c4cccc(Cl)c4Cl)CC3)nc2N1` (as salt: HCl) [Example 14, 2-{4-[4-(2,3-Dichloro-phenyl)-piperazin-1-yl]-butoxy}-5,6,7,9-tetrahydro-1,7,9-triaza-benzocyclohepten-8-one] had a melting point of 197 to 199 °C. The molecule `CC1(C)CCc2ccc(OCCCCN3CCN(c4cccc(Cl)c4Cl)CC3)cc2NC1=O` [Example 57, 8-{4-[4-(2,3-Dichlorophenyl)piperazin-1-yl]butoxy}-3,3-dimethyl-1,3,4,5-tetrahydrobenzo[b]azepin-2-one] came in with a melting point of 110 to 112 °C. `CC1(C)CCC(=O)Nc2cc(OCCCCCN3CCN(c4cccc(Cl)c4Cl)CC3)ccc21` [Example 55, 8-{5-[4-(2,3-Dichlorophenyl)piperazin-1-yl]-pentyloxy}-5,5-dimethyl-1,3,4,5-tetrahydrobenzo[b]azepin-2-one] had a melting point of 128 to 130 °C. For `O=C1NCCc2ccc(OCCCCN3CCN(c4cccc5ccccc45)CC3)cc2N1` [Example 32, 8-[4-(4-Naphthalen-1-yl-piperazin-1-yl)-butoxy]-1,3,4,5-tetrahydro-benzo[d][1,3]diazepin-2-one], in series [1], the inhibition constant Ki was 3.45 nM. Still for that read-out and setting: in the case of `O=C1NCCc2ccc(OCCCCN3CCN(c4cccc5ccc(F)cc45)CC3)cc2N1` [Example 38, 8-{4-[4-(7-Fluoro-naphthalen-1-yl)-piperazin-1-yl]-butoxy}-1,3,4,5-tetrahydro-benzo[d][1,3]diazepin-2-one] it was 2.22 nM.

With `O=C1NCCc2ccc(OCCCCN3CCN(c4cccc5c4OCCC5)CC3)nc2N1` (as salt: HCl) [Example 17, 2-[4-(4-Chroman-8-yl-piperazin-1-yl)-butoxy]-5,6,7,9-tetrahydro-1,7,9-triaza-benzocyclohepten-8-one], the melting point lay within 154 to 156 °C.

`O=C1NCCc2ccc(CCCCCN3CCN(c4cccc(Cl)c4Cl)CC3)cc2N1` [Example 65] yielded a melting point of 159 to 161 °C. In series [1], this molecule gave an inhibition constant (Ki) of 4.47 nM.
